Measured values from US11479546B2, “Antimalarial hexahydropyrimidine analogues” (UCB Biopharma SRL, priority 2018, dated 2022).

system: Plasmodium falciparum 3D7; test: P. falciparum 3D7 asexual blood stage assay, Assay Procedure Version 2 (SYBR green readout); format: cell-based; settings: Plasmodium falciparum, 3D7, Erythrocyte, 72 h, Version 2 of the assay procedure (asterisk *); 72 h incubation in infected erythrocytes; 50,000 nM to 15 nM
In short: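 Parasite growth read as DNA fluorescence (SYBR green lysis overnight, ex 485/em 528 nm) after 72 h drug exposure of 3D7-infected erythrocytes at 0.5% parasitaemia, 5% haematocrit, 37 °C under 1% O2/3% CO2. Compounds tested 15–50,000 nM final, 0.5% DMSO; normalised to mefloquine (100%) and DMSO (0%), biphasic two-site EC50 fitting.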

| Compound | IC50 [µM] |
| --- | --- |
| C[C@@]1(c2cccc(Nc3ccc(OC(F)(F)F)nc3)c2Cl)CC(=O)N([C@H]2C[C@@](C)(O)C2)C(=N)N1 [Example 130, (6S)-6-(2-Chloro-3-{[6-(trifluoromethoxy)pyridin-3-yl]-amino}phenyl)-3-(3-hydroxy-3-methylcyclobutyl)-2-imino-6-methylhexahydropyrimidin-4-one] | 0.744 |
| C[C@@]1(c2cccc(Nc3cc4ccccc4nc3OC(F)F)c2Cl)CC(=O)N(C2CCOCC2)C(=N)N1 [Example 98, (6S)-6-(2-Chloro-3-{[2-(difluoromethoxy)quinolin-3-yl]amino}phenyl)-2-imino-6-methyl-3-(tetrahydropyran-4-yl)hexahydropyrimidin-4-one] | 0.224 |
| Cn1cnc2cc(Nc3cccc([C@]4(C)CC(=O)N(C5CCOCC5)C(=N)N4)c3Cl)cnc21 [Example 116, (6S)-6-{2-Chloro-3-[(3-methyl-imidazo[4,5-b]pyridin-6-yl)-amino]phenyl}-2-imino-6-methyl-3-(tetrahydropyran-4-yl)hexahydropyrimidin-4-one] | 0.556 |
| C[C@@]1(c2cccc(Nc3ccc(C#N)cc3OC(F)F)c2Cl)CC(=O)N([C@H]2C[C@@](C)(O)C2)C(=N)N1 [Example 133, 4-{2-Chloro-3-[(4S)-1-(3-hydroxy-3-methylcyclobutyl)-2-imino-4-methyl-6-oxo-hexahydropyrimidin-4-yl]-anilino}-3-(difluoromethoxy)-benzonitrile] | 0.562 |
| C[C@@H]1C[C@H](N2C(=N)N[C@](C)(c3cccc(Nc4ccc(Cl)cc4)c3Cl)CC2=O)CCO1 (relative stereo) [Example 155, (6S)-6-[2-Chloro-3-(4-chloro-anilino)phenyl]-2-imino-6-methyl-3-[(2R*,4R*)-2-methyl-tetrahydropyran-4-yl]-hexahydropyrimidin-4-one] | 0.071 |
| C[C@@]1(c2cccc(Nc3ccc4c(c3)OCO4)c2Cl)CC(=O)N(C2CCOCC2)C(=N)N1 [Example 59, (6S)-6-[3-(1,3-Benzodioxol-5-ylamino)-2-chlorophenyl]-2-imino-6-methyl-3-(tetrahydro-pyran-4-yl)hexahydropyrimidin-4-one] | 0.365 |
| C[C@@]1(c2cccc(Nc3cncc4ccccc34)c2Cl)CC(=O)N(C2CCOCC2)C(=N)N1 [Example 46, (6S)-6-[2-Chloro-3-(isoquinolin-4-ylamino)phenyl]-2-imino-6-methyl-3-(tetrahydropyran-4-yl)hexahydropyrimidin-4-one] | 0.425 |
| Cc1nnc(-c2ccc(Nc3cccc([C@]4(C)CC(=O)N(C5CCOCC5)C(=N)N4)c3Cl)cc2)o1 [Example 80, (6S)-6-{2-Chloro-3-[4-(5-methyl-1,3,4-oxadiazol-2-yl)-anilino]phenyl}-2-imino-6-methyl-3-(tetrahydropyran-4-yl)hexahydropyrimidin-4-one] | 0.652 |
| Cn1cc2cc(Nc3cccc([C@]4(C)CC(=O)N(C5CCOCC5)C(=N)N4)c3Cl)ccc2n1 [Example 78, (6S)-6-{2-Chloro-3-[(2-methyl-indazol-5-yl)amino]phenyl}-2-imino-6-methyl-3-(tetrahydro-pyran-4-yl)hexahydropyrimidin-4-one] | 1.42 |
| CC1(C)CC(N2C(=N)N[C@](C)(c3cccc(Nc4ccc(C5CC5)nn4)c3Cl)CC2=O)CCO1 (single isomer, unassigned) [Example 150, (6S)-6-{2-Chloro-3-[(6-cyclo-propylpyridazin-3-yl)amino]-phenyl}-3-[(4S*)-2,2-dimethyl-tetrahydropyran-4-yl]-2-imino-6-methylhexahydropyrimidin-4-one] | 0.622 |

same assay, conditions: Version 2 of the assay procedure (asterisk *); 72 h incubation in infected erythrocytes; 50,000 nM to 15 nM

| Compound | IC50 [µM] |
| --- | --- |
| CC1(C)CC(N2C(=N)N[C@](C)(c3cccc(Nc4ccc(C5CC5)nc4)c3Cl)CC2=O)CCO1 (single isomer, unassigned) [Example 158, (6S)-6-{2-Chloro-3-[(6-cyclo-propylpyridin-3-yl)amino]-phenyl}-3-[(4S*)-2,2-dimethyl-tetrahydropyran-4-yl]-2-imino-6-methylhexahydropyrimidin-4-one] | 1.73 |
